Results taken from paper PMC6333893, “Exquisite ligand stereoselectivity of a Drosophila juvenile hormone receptor contrasts with its broad agonist repertoire” (The Journal of Biological Chemistry, 2018).
Like-named read-outs stand apart in the source and are kept apart here.

Tests used:
[1] = target: T1, Gce (germ cell-expressed), Myc-tagged, in vitro translated (Drosophila melanogaster, UniProt Q9VXW7); experiment: competition against R,S-[3H]JH III, glass fiber filter; format: binding
T1 sequence (Q9VXW7 271-959): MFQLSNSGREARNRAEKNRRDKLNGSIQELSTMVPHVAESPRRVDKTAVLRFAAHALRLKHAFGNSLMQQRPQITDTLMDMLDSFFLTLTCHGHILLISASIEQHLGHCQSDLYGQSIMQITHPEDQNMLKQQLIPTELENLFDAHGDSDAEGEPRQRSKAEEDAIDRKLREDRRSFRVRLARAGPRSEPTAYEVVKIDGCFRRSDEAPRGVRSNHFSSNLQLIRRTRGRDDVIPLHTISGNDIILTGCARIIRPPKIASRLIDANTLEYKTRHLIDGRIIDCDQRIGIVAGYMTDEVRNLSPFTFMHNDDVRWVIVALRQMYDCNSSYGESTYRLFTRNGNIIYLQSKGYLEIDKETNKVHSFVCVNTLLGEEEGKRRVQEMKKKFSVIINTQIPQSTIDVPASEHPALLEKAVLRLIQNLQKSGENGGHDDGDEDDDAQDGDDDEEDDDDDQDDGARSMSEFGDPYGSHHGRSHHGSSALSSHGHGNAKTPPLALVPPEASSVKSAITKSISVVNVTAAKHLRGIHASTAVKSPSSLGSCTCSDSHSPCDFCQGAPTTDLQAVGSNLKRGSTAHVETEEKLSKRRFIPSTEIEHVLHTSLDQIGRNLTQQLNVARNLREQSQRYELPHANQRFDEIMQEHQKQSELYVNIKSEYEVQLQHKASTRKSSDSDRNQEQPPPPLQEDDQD

[2] = target: T2, endogenous Gce in Drosophila S2 cells (JHRE-luc) (Drosophila melanogaster, UniProt Q9VXW7); experiment: JHRE-luc reporter activation in S2 cells; format: cell-based; settings: 8 h, transfected Tai, agonist
T2 construct: endogenous Gce of S2 cells, transfected D. melanogaster Tai and JHRE-luc reporter
T2 sequence (Q9VLD9 1-2026 partner, one chain of several): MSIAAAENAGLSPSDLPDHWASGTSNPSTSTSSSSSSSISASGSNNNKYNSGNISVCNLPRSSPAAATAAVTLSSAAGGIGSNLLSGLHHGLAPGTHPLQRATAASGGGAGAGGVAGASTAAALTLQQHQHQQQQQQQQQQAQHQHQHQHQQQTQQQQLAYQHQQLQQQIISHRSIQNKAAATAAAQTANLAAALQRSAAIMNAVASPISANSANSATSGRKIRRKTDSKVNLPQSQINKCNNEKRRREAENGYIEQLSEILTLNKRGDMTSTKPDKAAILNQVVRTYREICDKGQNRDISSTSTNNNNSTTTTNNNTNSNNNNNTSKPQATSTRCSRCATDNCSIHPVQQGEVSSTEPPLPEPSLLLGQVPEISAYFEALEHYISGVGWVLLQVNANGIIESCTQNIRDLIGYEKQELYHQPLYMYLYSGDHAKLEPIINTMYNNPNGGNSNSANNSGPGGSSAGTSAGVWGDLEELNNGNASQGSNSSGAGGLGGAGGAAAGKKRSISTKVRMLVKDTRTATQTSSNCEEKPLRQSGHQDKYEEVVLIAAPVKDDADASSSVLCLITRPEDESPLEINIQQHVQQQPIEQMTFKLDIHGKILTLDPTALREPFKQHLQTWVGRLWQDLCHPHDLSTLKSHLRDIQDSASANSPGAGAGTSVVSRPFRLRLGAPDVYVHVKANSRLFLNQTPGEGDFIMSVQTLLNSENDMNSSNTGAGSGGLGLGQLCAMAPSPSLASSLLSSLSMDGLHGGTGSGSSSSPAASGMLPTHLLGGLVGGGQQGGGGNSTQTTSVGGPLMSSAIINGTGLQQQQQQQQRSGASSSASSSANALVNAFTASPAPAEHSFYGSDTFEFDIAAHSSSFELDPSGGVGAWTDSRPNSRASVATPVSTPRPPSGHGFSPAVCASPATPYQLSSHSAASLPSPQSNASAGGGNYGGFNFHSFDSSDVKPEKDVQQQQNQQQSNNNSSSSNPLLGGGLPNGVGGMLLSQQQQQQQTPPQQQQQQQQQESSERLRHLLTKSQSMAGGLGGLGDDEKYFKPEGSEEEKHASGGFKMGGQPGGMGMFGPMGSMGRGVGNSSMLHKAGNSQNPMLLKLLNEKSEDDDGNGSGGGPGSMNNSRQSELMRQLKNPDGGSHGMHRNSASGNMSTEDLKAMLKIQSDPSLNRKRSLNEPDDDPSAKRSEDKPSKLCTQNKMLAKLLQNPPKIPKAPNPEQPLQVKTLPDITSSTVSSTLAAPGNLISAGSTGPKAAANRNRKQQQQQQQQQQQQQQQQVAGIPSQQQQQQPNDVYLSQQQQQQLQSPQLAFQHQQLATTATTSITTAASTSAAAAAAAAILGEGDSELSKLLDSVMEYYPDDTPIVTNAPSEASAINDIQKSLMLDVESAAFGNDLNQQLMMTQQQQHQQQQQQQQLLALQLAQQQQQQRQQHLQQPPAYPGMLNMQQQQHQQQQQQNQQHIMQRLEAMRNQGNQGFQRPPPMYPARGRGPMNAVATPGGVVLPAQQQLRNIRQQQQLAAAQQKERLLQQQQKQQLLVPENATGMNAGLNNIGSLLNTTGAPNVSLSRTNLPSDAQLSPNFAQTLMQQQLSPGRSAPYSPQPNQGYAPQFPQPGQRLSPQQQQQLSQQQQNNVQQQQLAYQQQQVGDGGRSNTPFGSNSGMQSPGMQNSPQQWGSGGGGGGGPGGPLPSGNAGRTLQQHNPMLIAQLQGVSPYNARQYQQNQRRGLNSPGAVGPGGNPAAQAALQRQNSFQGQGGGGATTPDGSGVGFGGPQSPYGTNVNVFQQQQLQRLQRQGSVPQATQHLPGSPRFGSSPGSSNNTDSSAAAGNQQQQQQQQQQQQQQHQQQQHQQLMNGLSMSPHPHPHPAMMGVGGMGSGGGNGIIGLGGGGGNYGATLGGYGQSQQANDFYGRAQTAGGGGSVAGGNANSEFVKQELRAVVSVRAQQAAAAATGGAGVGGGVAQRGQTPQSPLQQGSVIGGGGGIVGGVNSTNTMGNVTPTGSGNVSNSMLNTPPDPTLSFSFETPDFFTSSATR

[3] = read-out: Affinity of ligand binding to Gce (Ki)^a

Row | SMILES | Ki ([1]; read-out: Ki) | EC50 ([2]; read-out: EC50) | Ki [1, 3] | also measured
1 | CC/C(=C/CC/C(C)=C\C(=O)OC)CC[C@H]1O[C@@]1(C)CC [S-(Z,Z)-JH I] | – | – | 22600 nM | –
2 | COC(=O)/C=C(\C)CC/C=C(\C)CC[C@@H]1OC1(C)C [S-JH III] | 38.3 ± 5.2 nM | – | – | EC50 ([2]; unreliable (no saturation reached)): 4460 ± 2950 nM
3 | CC/C(=C\CC/C(C)=C\C(=O)OC)CC[C@H]1O[C@]1(C)CC [R-(Z,E)-JH I] | – | – | 2400 nM | –
4 | CC/C(=C\CC/C(C)=C/C(=O)OC)CC[C@H]1O[C@@]1(C)CC [S-(E,E)-JH I] | 13.8 ± 5.1 nM | 370 ± 220 nM | – | –
5 | COC(=O)/C=C(\C)CC/C=C(\C)CC[C@H]1OC1(C)C [R-JH III] | 4.8 ± 1.3 nM | 930 ± 380 nM | – | –
6 | CC/C(=C\CC/C(C)=C\C(=O)OC)CC[C@H]1O[C@@]1(C)CC [S-(Z,E)-JH I] | – | – | 614 nM | –
7 | CCOC(=O)NCCOc1ccc(CC2CCCCC2O)cc1 (centres unmarked) [W330, Ethyl N-{2-{4-[(2-hydroxycyclohexyl)methyl]phenoxy}ethyl}carbamate] | 17.4 ± 5.7 nM | 5.42 ± 0.41 nM | – | –
8 | COC(=O)/C=C(\C)CC/C=C(\C)CCC=C(C)C [MF] | 89.8 ± 26.7 nM | 4430 ± 950 nM | – | –
9 | CC/C(=C/CC/C(C)=C/C(=O)OC)CC[C@H]1O[C@]1(C)CC [R-(E,Z)-JH I] | – | – | 479 nM | –
10 | COC(=O)/C=C(\C)CC/C=C(\C)CCC1OC1(C)C (centres unmarked) [R,S-JH III] | 11 ± 2.2 nM | – | – | EC50 ([2]; racemic compound, read-out: EC50): 210 ± 140 nM

The next lines start with results.

Row | Ki ([1]; read-out: Ki) | EC50 ([2]; read-out: EC50) | Ki [1, 3] | SMILES | also measured
11 | 2.8 ± 1.1 nM | 2.29 ± 0.65 nM | – | CCOC(=O)NCCOc1ccc(Oc2ccccc2)cc1 [fenoxycarb, ethyl N-[2-(4-phenoxyphenoxy)ethyl]carbamate] | –
12 | 83.3 ± 40.8 nM | 110 ± 10 nM | – | COC(=O)/C=C(\C)CCC1OC1(C)CCC1OC1(C)C (centres unmarked) [JHB3] | –
13 | 143 ± 45 nM | – | – | CC/C(C)=C/CC/C(=C/CC/C(C)=C/C(=O)OC)CC [deoxy-JH I, methyl (2E,6E,10E)-7-ethyl-3,11-dimethyltrideca-2,6,10-trienoate] | –
14 | – | – | 447 nM | CC/C(=C/CC/C(C)=C/C(=O)OC)CC[C@H]1O[C@@]1(C)CC [S-(E,Z)-JH I] | –
15 | – | – | 28900 nM | CC/C(=C/CC/C(C)=C\C(=O)OC)CC[C@H]1O[C@]1(C)CC [R-(Z,Z)-JH I] | –
